The source of these data is patent US9732046B2, “Substituted 1,2,4-triazines as tubulin inhibitors” (YM Biosciences Australia Pty Ltd., priority 2003, dated 2017).

Common to all, as to format: cell-based
Assay [1] concerns the target T1, TelJak2 (BaF3 TELJAK cells, TEL/Jak2 fusion) (Homo sapiens, UniProt O60674).
T1 construct: The regions encompassing the kinase domain of JAK2 (nucleotides 2994-3914); expressed in transfected cells; host or cells: BaF3 cells bearing the pTET-off plasmid, transfected with pTELJAK2 (pTRE2 vector); the other entry of the earlier key: ETV6 (P41212, Transcription factor ETV6)
Nature of the assay: Cellular growth inhibition assay (MTT), BaF3 TEL:JAK2 cell line. Conditions: Table 1, 40 hr incubation. On the procedure: (§1) For screening purposes, compounds were diluted in 96 well plates at a concentration of 20 μM. Plates were warmed at 37° C. for 30 minutes before assay.
(§2) The coding region encompassing nucleotides 1-487 of TEL was amplified by PCR using the oligonucleotides 5TEL (5′-GGAGGATCCTGATCTCTCTCGCTGTGAGAC-3′) (SEQ ID NO: 1) and 3TEL (5′-AGGC GTCGACTTCTTCTTGATGGTTCTG-3′) (SEQ ID NO: 2) and U937 mRNA as template. A BamH I site was incorporated into the 5TEL primer, and a Sal I site was incorporated into the 3TEL primer. The regions encompassing the kinase domain of JAK2 (nucleotides 2994-3914; JAK2F 5′-ACGC GTCGACGGTGCCTTTGAAGACCGGGAT-3 (SEQ ID NO: 3); JAK2R 5′-ATAGTTTAGCGGCCGCTCAGAATGAAGGTCATTT-3′) (SEQ ID NO: 4) and JAK3 (nucleotides 2520-3469; JAK3F 5′-GAAGTCGACTATGCCTGCCAAGACCCCACGATCTT-3′ (SEQ ID NO: 5); JAK3R 5′-GGATCTAGACTATGAAAAGGACAGGGAGTGGTGTTT-3′ (SEQ ID NO: 6)) were generated by PCR using Taq DNA polymerase (Gibco/BRL) and U937 mRNA as template. A Sal I site was incorporated into the forward primer of JAK2 and JAK3, a Not I site was incorporated into the JAK2 reverse primer and a Xba I site was added to the reverse primer of JAK3.
(§3) A TEL/Jak2 fusion was generated by digestion of the TELPCR product with BamH I/Sa1 I, digestion of the JAK2 PCR product with Sa1 I/Not I followed by ligation and subcloning into the mammalian expression Vector pTRE 2 (Clontech) digested with BamH I-Not I (pTELJAK2). For JAK3 Sa1 I/Not I cleaved kinase domain PCR product was ligated with BamH I/Sa1 I cleaved TELproduct followed by ligation into BamH I/Not I cleaved pTRE2 (pTELJAK3).
(§4) The growth factor dependent myelomonocytic cell line BaF3 bearing the pTET-off plasmid (Clontech) was transfected with either pTELJAK2 or pTELJAK3 and the cells selected for factor independent growth. BaF 3 wild type cells were cultured in DMEM 10% FCS, 10% WEHI 3B conditioned medium. BaF3 TELJAK cells were cultured in DMEM 10% Tet-System Approved FBS (without WEHI 3B conditioned medium).
(§5) Cell suspensions were prepared by harvesting cells from culture. (Cells used in this test should be in later log phase growth and high viability.) Cells were diluted in correct growth medium to 1.1× final concentration (from 50000 cell/mL to 200,000 cell/mL, depending on cell line).
(§6) Compounds to be tested were added (10 μL, 10× final concentration) to a flat bottom 96-well plate. The cellular suspension (90 μL per well) was added, and the plate incubated for 40 hr at 37° C., 5% CO2. MTT (20 μL per well, 5 mg/mL in PBS) was added and the plates were returned to the incubator for a further 6 hours. Lysis buffer (100 μL per well, 10% SDS, 0.01N HCl) was added and the plate stored in the incubator overnight. The plate was then read at 590 nm.

Assay [2] has as its system PC3 (Prostate Cancer). Nature of the assay: Cellular growth inhibition assay (MTT), PC3. Conditions: Table 1, 40 hr incubation. On the procedure: as §1
(§7) K562 (Chronic Myeloid Leukemia), PC3 (Prostate Cancer), and DU145 (Prostate Cancer) were obtained from the American Type Culture Collection (ATCC). K562 was grown in RPMI, with 10% FBS with Glutamx added. DU145 cells were cultured in DMED, with 10% FBS and Glutamx and MEM non-essential amino acids added. PC3 cells were grown in F12K medium, with 10% FBS and Glutamx and MEM non-essential amino acids added. All cells were grown at 37° C. in 5% CO2.
as §5, §6

The test system of assay [3] is K562 (Chronic Myeloid Leukemia). As to the kind of experiment: Cellular growth inhibition assay (MTT), K562. Conditions: Homo sapiens, Table 1, 40 hr incubation. Here is the method: as §1, §7, §5, §6
Assay [4] addresses T2, TelJak3 (BaF3 TELJAK cells, TEL/JAK3 fusion) (Homo sapiens, UniProt P52333).
T2 construct: For JAK3 Sa1 I/Not I cleaved kinase domain PCR product was ligated with BamH I/Sa1 I cleaved TELproduct; expressed in transfected cells; host or cells: BaF3 cells bearing the pTET-off plasmid, transfected with pTELJAK3 (pTRE2 vector); the other entry of the earlier key: ETV6 (P41212, Transcription factor ETV6)
Nature of the assay: Cellular growth inhibition assay (MTT), BaF3 TEL:JAK3 cell line. Conditions: Table 1, 40 hr incubation. Here is the method:
as §1, §2, §3, §4, §5, §6

Assay [5] has as its system DU145 (Prostate Cancer). As to the kind of experiment: Cellular growth inhibition assay (MTT), DU145. Conditions: Homo sapiens, DU-145, Table 1, 40 hr incubation. On the procedure: as §1, §7, §5, §6

Bounds are passed on as bounds.

T1 sequence (O60674 with tags, fused parts or gaps): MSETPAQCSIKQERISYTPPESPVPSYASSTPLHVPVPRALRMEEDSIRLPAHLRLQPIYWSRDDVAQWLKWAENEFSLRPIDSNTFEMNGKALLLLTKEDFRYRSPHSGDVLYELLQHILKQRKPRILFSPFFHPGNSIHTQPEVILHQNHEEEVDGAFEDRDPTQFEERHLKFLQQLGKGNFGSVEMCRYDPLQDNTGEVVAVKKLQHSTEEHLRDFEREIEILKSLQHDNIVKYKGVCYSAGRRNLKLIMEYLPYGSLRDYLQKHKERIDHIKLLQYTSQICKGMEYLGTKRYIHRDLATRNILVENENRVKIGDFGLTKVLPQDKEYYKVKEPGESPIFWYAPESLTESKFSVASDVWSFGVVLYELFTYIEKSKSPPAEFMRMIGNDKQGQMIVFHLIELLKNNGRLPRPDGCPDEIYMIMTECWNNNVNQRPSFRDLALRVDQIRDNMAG
T2 sequence (P52333 with tags, fused parts or gaps): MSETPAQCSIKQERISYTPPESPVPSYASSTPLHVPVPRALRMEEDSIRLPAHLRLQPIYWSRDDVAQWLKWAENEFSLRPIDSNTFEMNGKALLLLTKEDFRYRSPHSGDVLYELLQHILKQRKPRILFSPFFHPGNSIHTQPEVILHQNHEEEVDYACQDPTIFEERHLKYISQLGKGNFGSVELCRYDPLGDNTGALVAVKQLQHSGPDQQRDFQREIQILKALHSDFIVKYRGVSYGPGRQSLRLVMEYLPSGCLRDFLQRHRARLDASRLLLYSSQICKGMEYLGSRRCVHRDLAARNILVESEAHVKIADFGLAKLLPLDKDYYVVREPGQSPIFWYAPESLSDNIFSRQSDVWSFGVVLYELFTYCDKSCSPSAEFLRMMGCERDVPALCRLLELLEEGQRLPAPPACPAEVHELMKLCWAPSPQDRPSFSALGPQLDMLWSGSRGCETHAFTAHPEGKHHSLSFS

With `CCCC(Nc1cncc(-c2ccc(CN3CCCCC3)cc2)n1)c1ccccc1` (stereo not drawn), the inhibition at 20 µM is more than 50% in assay [1]; less than 50% in assay [2]; less than 50% in assay [3]; more than 50% in assay [4]; less than 50% in assay [5].
With `CCCC(Nc1cncc(-c2ccc(C(=O)N3CCN(C)CC3)cc2)n1)c1ccccc1` (stereo not drawn), the inhibition at 20 µM in assay [1] is more than 50%; in assay [2] it was less than 50%; in assay [3] it was less than 50%; in assay [4] it was more than 50%.
For the compound `CCCC(Nc1cncc(-c2ccc(C(=O)N3CCOCC3)cc2)n1)c1ccccc1` (stereo not drawn), the inhibition at 20 µM is more than 50% in assay [1], less than 50% in assay [2], less than 50% in assay [3] and more than 50% in assay [4].
In the case of `CCNC(=O)Nc1ccc(-c2cncc(NC(C)c3cccnc3)n2)cc1OC` (stereo not drawn), the inhibition at 20 µM in assay [1] is more than 50%; in assay [2], less than 50%; in assay [4], more than 50%.
As for `CCCC(Nc1cncc(-c2ccc(OCCCN3CCN(C)CC3)c(OC)c2)n1)c1cccnc1` (stereo not drawn), the inhibition at 20 µM is more than 50% in assay [1]; less than 50% in assay [2]; less than 50% in assay [3]; more than 50% in assay [4]; less than 50% in assay [5].
`CCCC(Nc1cncc(-c2ccc(OCCCN3CCCC3)c(OC)c2)n1)c1cccnc1` (stereo not drawn): the inhibition at 20 µM is more than 50% in assay [1]; less than 50% in assay [2]; more than 50% in assay [3]; more than 50% in assay [4]; less than 50% in assay [5].
Turning to `CCCC(Nc1cncc(-c2ccc(OCCCN3CCOCC3)c(OC)c2)n1)c1cccnc1` (stereo not drawn), the inhibition at 20 µM in assay [1] is more than 50%; in assay [2], less than 50%; in assay [3], less than 50%; in assay [4], more than 50%; in assay [5], less than 50%.
On to `CCCC(Nc1cncc(-c2ccc(NC(=O)NCCCN(CC)CC)c(OC)c2)n1)c1cccnc1` (stereo not drawn), for which the inhibition at 20 µM in assay [1] is more than 50%; in assay [2], less than 50%; in assay [3] it was less than 50%; in assay [4], more than 50%; in assay [5], less than 50%.
With `CCCC(Nc1cncc(-c2ccc(CO)c(OC)c2)n1)c1cccnc1` (stereo not drawn), the inhibition at 20 µM in assay [1] was more than 50%; in assay [2] it was less than 50%; in assay [3], more than 50%; in assay [4], more than 50%; in assay [5] it was less than 50%.
Consider `CCC[C@H](Nc1cncc(-c2ccc(NC(=O)CN(C)C)c(OC)c2)n1)c1cccnc1`, for which the inhibition at 20 µM in assay [1], in assay [2], in assay [3], in assay [4] and in assay [5] was more than 50% throughout.
`CCCC(Nc1cncc(-c2ccc(C(=O)NCCCCCN)c(C)c2)n1)c1cccnc1` (stereo not drawn): the inhibition at 20 µM in assay [1] is more than 50%; in assay [2], less than 50%; in assay [3], more than 50%; in assay [4] it was more than 50%; in assay [5], less than 50%.
`COc1cc(-c2ncc(C)c(NC(CCO)c3ccccc3)n2)ccc1O` (stereo not drawn): the inhibition at 20 µM was more than 50% in assay [1]; less than 50% in assay [2]; more than 50% in assay [3]; more than 50% in assay [4]; more than 50% in assay [5].
As to `CCCC(Nc1nnc(C)c(-c2cc(OC)c(OC)c(OC)c2)n1)c1ccccc1` (stereo not drawn), the inhibition at 20 µM in assay [1] is more than 50%; in assay [2], less than 50%; in assay [3], more than 50%; in assay [4], more than 50%; in assay [5], less than 50%.
As for `COc1cc(-c2nc(N[C@H](C)c3ccccc3)nnc2C)ccc1O`, the inhibition at 20 µM in assay [1] is more than 50%; in assay [2] it was less than 50%; in assay [3], more than 50%; in assay [4], more than 50%; in assay [5], less than 50%.
